Numbers after ± are expanded uncertainties.
Assay: xn = mol fraction of the nth substance listed
Conditions: 101 kPa, Liquid; for viscosity: Falling or rolling sphere viscometry; for mass density: Vibrating tube method

For CCCC(=O)OCC [ethyl butanoate] + CCCCO, the viscosity (288.15 K, x1 = 0.1) was 2.336 ± 0.05 mPa·s, the viscosity (288.15 K, x1 = 0.2001) was 1.762 ± 0.038 mPa·s and the viscosity (288.15 K, x1 = 0.2999) was 1.408 ± 0.03 mPa·s. The viscosity (288.15 K, x1 = 0.3998) was 1.186 ± 0.026 mPa·s, the viscosity (288.15 K, x1 = 0.5) was 1.022 ± 0.022 mPa·s and the viscosity (288.15 K, x1 = 0.5999) was 0.9212 ± 0.02 mPa·s. The viscosity (288.15 K, x1 = 0.6998) was 0.8393 ± 0.018 mPa·s, the viscosity (288.15 K, x1 = 0.7999) was 0.785 ± 0.017 mPa·s and the viscosity (288.15 K, x1 = 0.9001) was 0.7409 ± 0.016 mPa·s. The viscosity (288.15 K, x1 = 1) was 0.7224 ± 0.016 mPa·s, the mass density (288.15 K, x1 = 0.1) was 822.84 ± 0.21 kg/m3 and the mass density (288.15 K, x1 = 0.2001) was 831.39 ± 0.21 kg/m3. For the same compound, the mass density (288.15 K, x1 = 0.2999) was 839.43 ± 0.21 kg/m3, the mass density (288.15 K, x1 = 0.3998) was 846.96 ± 0.22 kg/m3 and the mass density (288.15 K, x1 = 0.5) was 854.06 ± 0.22 kg/m3. For the same compound, the mass density (288.15 K, x1 = 0.5999) was 860.72 ± 0.23 kg/m3, the mass density (288.15 K, x1 = 0.6998) was 867 ± 0.24 kg/m3 and the mass density (288.15 K, x1 = 0.7999) was 872.95 ± 0.25 kg/m3. It also gave a mass density (288.15 K, x1 = 0.9001) of 878.66 ± 0.26 kg/m3, a mass density (288.15 K, x1 = 1) of 884.16 ± 0.27 kg/m3 and a viscosity (293.15 K, x1 = 0.1) of 2.037 ± 0.044 mPa·s. The viscosity (293.15 K, x1 = 0.2001) was 1.581 ± 0.034 mPa·s, the viscosity (293.15 K, x1 = 0.2999) was 1.279 ± 0.027 mPa·s and the viscosity (293.15 K, x1 = 0.3998) was 1.085 ± 0.023 mPa·s. It also gave a viscosity (293.15 K, x1 = 0.5) of 0.9419 ± 0.02 mPa·s, a viscosity (293.15 K, x1 = 0.5999) of 0.8544 ± 0.018 mPa·s and a viscosity (293.15 K, x1 = 0.6998) of 0.7817 ± 0.017 mPa·s. It also gave a viscosity (293.15 K, x1 = 0.7999) of 0.7316 ± 0.016 mPa·s, a viscosity (293.15 K, x1 = 0.9001) of 0.6958 ± 0.015 mPa·s and a viscosity (293.15 K, x1 = 1) of 0.6808 ± 0.015 mPa·s. The mass density (293.15 K, x1 = 0.1) was 818.8 ± 0.21 kg/m3, the mass density (293.15 K, x1 = 0.2001) was 827.16 ± 0.21 kg/m3 and the mass density (293.15 K, x1 = 0.2999) was 835.01 ± 0.21 kg/m3. For the same compound, the mass density (293.15 K, x1 = 0.3998) was 842.37 ± 0.22 kg/m3, the mass density (293.15 K, x1 = 0.5) was 849.32 ± 0.22 kg/m3 and the mass density (293.15 K, x1 = 0.5999) was 855.86 ± 0.23 kg/m3. The mass density (293.15 K, x1 = 0.6998) was 862.01 ± 0.24 kg/m3, the mass density (293.15 K, x1 = 0.7999) was 867.86 ± 0.25 kg/m3 and the mass density (293.15 K, x1 = 0.9001) was 873.47 ± 0.26 kg/m3. For the same compound, the mass density (293.15 K, x1 = 1) was 878.9 ± 0.27 kg/m3, the viscosity (298.15 K, x1 = 0.1) was 1.841 ± 0.039 mPa·s and the viscosity (298.15 K, x1 = 0.2001) was 1.427 ± 0.031 mPa·s. It also gave a viscosity (298.15 K, x1 = 0.2999) of 1.166 ± 0.025 mPa·s, a viscosity (298.15 K, x1 = 0.3998) of 0.9988 ± 0.022 mPa·s and a viscosity (298.15 K, x1 = 0.5) of 0.8734 ± 0.019 mPa·s. It also gave a viscosity (298.15 K, x1 = 0.5999) of 0.7967 ± 0.017 mPa·s, a viscosity (298.15 K, x1 = 0.6998) of 0.7315 ± 0.016 mPa·s and a viscosity (298.15 K, x1 = 0.7999) of 0.6849 ± 0.015 mPa·s. It also gave a viscosity (298.15 K, x1 = 0.9001) of 0.656 ± 0.014 mPa·s, a viscosity (298.15 K, x1 = 1) of 0.643 ± 0.014 mPa·s and a mass density (298.15 K, x1 = 0.1) of 814.75 ± 0.21 kg/m3. For the same compound, the mass density (298.15 K, x1 = 0.2001) was 822.9 ± 0.21 kg/m3, the mass density (298.15 K, x1 = 0.2999) was 830.57 ± 0.21 kg/m3 and the mass density (298.15 K, x1 = 0.3998) was 837.77 ± 0.22 kg/m3. The mass density (298.15 K, x1 = 0.5) was 844.57 ± 0.22 kg/m3, the mass density (298.15 K, x1 = 0.5999) was 850.97 ± 0.23 kg/m3 and the mass density (298.15 K, x1 = 0.6998) was 857 ± 0.24 kg/m3. The mass density (298.15 K, x1 = 0.7999) was 862.74 ± 0.25 kg/m3, the mass density (298.15 K, x1 = 0.9001) was 868.27 ± 0.26 kg/m3 and the mass density (298.15 K, x1 = 1) was 873.62 ± 0.27 kg/m3. It also gave a viscosity (303.15 K, x1 = 0.1) of 1.648 ± 0.035 mPa·s, a viscosity (303.15 K, x1 = 0.2001) of 1.292 ± 0.028 mPa·s and a viscosity (303.15 K, x1 = 0.2999) of 1.068 ± 0.023 mPa·s. The viscosity (303.15 K, x1 = 0.3998) was 0.9215 ± 0.02 mPa·s, the viscosity (303.15 K, x1 = 0.5) was 0.8111 ± 0.017 mPa·s and the viscosity (303.15 K, x1 = 0.5999) was 0.7434 ± 0.016 mPa·s. It also gave a viscosity (303.15 K, x1 = 0.6998) of 0.6856 ± 0.015 mPa·s, a viscosity (303.15 K, x1 = 0.7999) of 0.6447 ± 0.014 mPa·s and a viscosity (303.15 K, x1 = 0.9001) of 0.6181 ± 0.013 mPa·s. For the same compound, the viscosity (303.15 K, x1 = 1) was 0.6072 ± 0.013 mPa·s, the mass density (303.15 K, x1 = 0.1) was 810.68 ± 0.21 kg/m3 and the mass density (303.15 K, x1 = 0.2001) was 818.63 ± 0.21 kg/m3. For the same compound, the mass density (303.15 K, x1 = 0.2999) was 826.12 ± 0.22 kg/m3, the mass density (303.15 K, x1 = 0.3998) was 833.15 ± 0.22 kg/m3 and the mass density (303.15 K, x1 = 0.5) was 839.8 ± 0.23 kg/m3. For the same compound, the mass density (303.15 K, x1 = 0.5999) was 846.07 ± 0.23 kg/m3, the mass density (303.15 K, x1 = 0.6998) was 851.98 ± 0.24 kg/m3 and the mass density (303.15 K, x1 = 0.7999) was 857.62 ± 0.25 kg/m3. It also gave a mass density (303.15 K, x1 = 0.9001) of 863.05 ± 0.26 kg/m3 and a mass density (303.15 K, x1 = 1) of 868.33 ± 0.27 kg/m3.

Source: the NIST ThermoML archive (doi:10.1021/je5005752)
